What was measured:
Type in all cases: in vivo
[1] = test system: Echinochloa crus-galli; experiment: Test Example 1: herbicidal effect test by treatment of rice paddy soil (immediately after seeding); details: 120 g/10a active ingredient, dry weight vs untreated area, 14 days after treatment
Outline: (§1)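 Flooded paddy pot test in a glass greenhouse: emulsion diluted in water, dropped at 120 g a.i. per 10 ares just after sowing, water depth kept about 3 cm. Dry-weight reduction relative to untreated plants is scored at 14 days.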

[2] = test system: Scirpus juncoides; experiment: as above; details: 120 g/10a active ingredient, dry weight vs untreated area, 14 days after treatment
Outline: as §1

[3] = test system: broad leaf weeds (Lindernia pyxidaria and Monochoria vaginalis); experiment: as above; details: 120 g/10a active ingredient, dry weight vs untreated area, 14 days after treatment
Outline: as §1

[4] = test system: Echinochloa crus-galli; experiment: Test Example 2: herbicidal effect test by treatment during growing period in paddy rice cultivation (seven days after seeding); details: 120 g/10a active ingredient, assessed 14 days after treatment, dry weight vs untreated area
Outline: (§2)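 Post-emergence paddy water application: compounds were formulated as emulsions, diluted and dropped into flooded pots seven days after sowing at a rate equivalent to 120 g per 10 ares. Efficacy was taken as dry-weight reduction relative to untreated controls after 14 days.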

[5] = test system: Scirpus juncoides; experiment: as above; details: 120 g/10a active ingredient, assessed 14 days after treatment, dry weight vs untreated area
Outline: as §2

[6] = test system: broad leaf weeds (Lindernia pyxidaria and Monochoria vaginalis); experiment: as above; details: 120 g/10a active ingredient, assessed 14 days after treatment, dry weight vs untreated area
Outline: as §2

[7] = test system: Amaranthus viridis; experiment: Test Example 3: herbicidal effect test by treatment of dry field farming soil (one day after seeding); details: 120 g/10a active ingredient, evaluated 14 days after treatment
Outline: (§3)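 Dry-field alluvium pots; weed seeds incorporated in top 1 cm; soil spray of diluted emulsion 1 d after seeding, 120 g a.i./10 a in 100 L/10 a. Readout: % reduction of dry weight vs untreated, day 14, duplicates.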

[8] = test system: Chenopodium album; experiment: as above; details: 120 g/10a active ingredient, evaluated 14 days after treatment
Outline: as §3

[9] = test system: Echinochloa crus-galli; experiment: as above; details: 120 g/10a active ingredient, evaluated 14 days after treatment
Outline: as §3

[10] = test system: southern crabgrass; experiment: as above; details: 120 g/10a active ingredient, evaluated 14 days after treatment
Outline: as §3

[11] = test system: Amaranthus viridis; experiment: Test Example 4: herbicidal effect test by treatment of leave and stem in dry field farming (seven days after seeding); details: 120 g/10a active ingredient; emulsion sprayed seven days after seeding; evaluated 14 days after treatment
Outline: (§4)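 Twenty seeds per species were mixed into the top 1 cm of alluvial soil in 36 cm^2 pots; emulsions were sprayed seven days after seeding at 100 L per 10 ares (120 g active ingredient per 10 ares). Herbicidal rate (%) = {1 − treated/untreated mean dry weight} × 100, 14 days after treatment, duplicate.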

[12] = test system: Chenopodium album; experiment: as above; details: 120 g/10a active ingredient; emulsion sprayed seven days after seeding; evaluated 14 days after treatment
Outline: as §4

[13] = test system: Echinochloa crus-galli; experiment: as above; details: 120 g/10a active ingredient; emulsion sprayed seven days after seeding; evaluated 14 days after treatment
Outline: as §4

[14] = test system: southern crabgrass; experiment: as above; details: 120 g/10a active ingredient; emulsion sprayed seven days after seeding; evaluated 14 days after treatment
Outline: as §4

| Structure (SMILES) | Herbicidal rate (%) Echinochloa crus-galli [1] [%] | Herbicidal rate (%) Scirpus juncoides [2] [%] | Herbicidal rate (%) Lindernia pyxidaria [3] [%] | Herbicidal rate (%) Monochoria vaginalis [3] [%] | Herbicidal rate (%) Echinochloa crus-galli [4] [%] | Herbicidal rate (%) Scirpus juncoides [5] [%] | Herbicidal rate (%) Lindernia pyxidaria [6] [%] | Herbicidal rate (%) Monochoria vaginalis [6] [%] | herbicidal rate, Amaranthus viridis [7] [%] | herbicidal rate, Chenopodium album [8] [%] | herbicidal rate, Echinochloa crus-galli [9] [%] | herbicidal rate, southern crabgrass [10] [%] | herbicidal effect (herbicidal rate), Amaranthus viridis [11] [%] | herbicidal effect (herbicidal rate), Chenopodium album [12] [%] | herbicidal effect (herbicidal rate), Echinochloa crus-galli [13] [%] | herbicidal effect (herbicidal rate), southern crabgrass [14] [%] |
| --- | --- | --- | --- | --- | --- | --- | --- | --- | --- | --- | --- | --- | --- | --- | --- | --- |
| CCC(C)n1oc(=O)c(Cc2ccccc2N(C(=O)OCCOC)S(=O)(=O)C(F)(F)F)c1C (centres unmarked) [Compound 1-731] | 90 | 90 | 90 | 90 | 90 | 90 | 90 | 90 | 90 | 90 | 90 | 90 | 40 | 40 | 90 | 90 |
| CCC(C)Cn1oc(=O)c(Cc2ccccc2N(C(=O)OCCOC)S(=O)(=O)C(F)(F)F)c1C (centres unmarked) [Compound 1-733] | 100 | 100 | 90 | 90 | 100 | 90 | 70 | 90 | 80 | 60 | 100 | 100 | 60 | 60 | 90 | 80 |
| COCCOC(=O)N(c1ccccc1Cc1c(C)n(CCSC)oc1=O)S(=O)(=O)C(F)(F)F [Compound 1-735] | 90 | 90 | 90 | 90 | 90 | 90 | 90 | 90 | 90 | 90 | 90 | 90 | 40 | 40 | 90 | 90 |
| COCCOC(=O)N(c1ccccc1Cc1c(C)n(C(C)c2ccccc2)oc1=O)S(=O)(=O)C(F)(F)F (centres unmarked) [Compound 1-736] | 90 | 90 | 90 | 90 | 90 | 90 | 90 | 90 | 90 | 90 | 90 | 90 | 40 | 40 | 90 | 90 |
| Cc1c(Cc2ccccc2N(C(=O)Oc2ccccc2)S(=O)(=O)C(F)(F)F)c(=O)on1C(C)(C)C [Compound 1-762] | 90 | 90 | 90 | 90 | 90 | 90 | 90 | 90 | 90 | 90 | 90 | 90 | 40 | 40 | 90 | 90 |
| CCC(C)n1oc(=O)c(Cc2ccccc2N(C(=O)Oc2ccccc2)S(=O)(=O)C(F)(F)F)c1C (centres unmarked) [Compound 1-763] | 90 | 90 | 90 | 90 | 90 | 90 | 90 | 90 | 90 | 90 | 90 | 90 | 40 | 40 | 90 | 90 |
| COCC(C)n1oc(=O)c(Cc2ccccc2N(C(=O)Oc2ccccc2)S(=O)(=O)C(F)(F)F)c1C (centres unmarked) [Compound 1-765] | 90 | 90 | 90 | 90 | 90 | 90 | 90 | 90 | 90 | 90 | 90 | 90 | 40 | 40 | 90 | 90 |
| Cc1c(Cc2ccccc2N(C(=O)Oc2ccccc2)S(=O)(=O)C(F)(F)F)c(=O)on1C(C)c1ccccc1 (centres unmarked) [Compound 1-766] | 90 | 90 | 90 | 90 | 90 | 90 | 90 | 90 | 90 | 90 | 90 | 90 | 40 | 40 | 90 | 90 |

— patent US11109593B2, “Isoxazolin-5-one derivative and herbicide containing same as active ingredient” (HOKKO CHEMICAL INDUSTRY CO., LTD., priority 2017, dated 2021)
